Laboratory results taken from ChEMBL document CHEMBL6074688, “Discovery of a Novel Mutant-Selective Epidermal Growth Factor Receptor Inhibitor Using an In Silico Enabled Drug Discovery Platform” (J Med Chem, 2024).
pIC50, pKi: −log10 of the molar value.

Tests used:
[1] = biological target: T1, CYP3A4/5 (Homo sapiens, UniProt P08684+P20815); assay: Time dependent inhibition of CYP3A4/5 (unknown origin) assessed as remaining activity at 30 uM relative to control; assay type: protein assay; conditions: read-out: Activity
[2] = biological target: T1, CYP3A4/5; assay: Time dependent inhibition of CYP3A4/5 (unknown origin) at 30 uM measured after 30 mins relative to control; assay type: protein assay; conditions: read-out: TDI
[3] = physchem; conditions: octanol/water
[4] = biological target: Epidermal growth factor receptor (Homo sapiens, UniProt P00533, C797S/L858R/T790M); assay: Binding affinity to EGFR L858R/T790M/C797S mutant (unknown origin) assessed as inhibition constant incubated for 30 mins in presence of ATP by Real-time fluorescence based analysis
Chain of Epidermal growth factor receptor (Homo sapiens, UniProt P00533, C797S/L858R/T790M) (P00533 25-1210 T790M/C797S/L858R limits assumed): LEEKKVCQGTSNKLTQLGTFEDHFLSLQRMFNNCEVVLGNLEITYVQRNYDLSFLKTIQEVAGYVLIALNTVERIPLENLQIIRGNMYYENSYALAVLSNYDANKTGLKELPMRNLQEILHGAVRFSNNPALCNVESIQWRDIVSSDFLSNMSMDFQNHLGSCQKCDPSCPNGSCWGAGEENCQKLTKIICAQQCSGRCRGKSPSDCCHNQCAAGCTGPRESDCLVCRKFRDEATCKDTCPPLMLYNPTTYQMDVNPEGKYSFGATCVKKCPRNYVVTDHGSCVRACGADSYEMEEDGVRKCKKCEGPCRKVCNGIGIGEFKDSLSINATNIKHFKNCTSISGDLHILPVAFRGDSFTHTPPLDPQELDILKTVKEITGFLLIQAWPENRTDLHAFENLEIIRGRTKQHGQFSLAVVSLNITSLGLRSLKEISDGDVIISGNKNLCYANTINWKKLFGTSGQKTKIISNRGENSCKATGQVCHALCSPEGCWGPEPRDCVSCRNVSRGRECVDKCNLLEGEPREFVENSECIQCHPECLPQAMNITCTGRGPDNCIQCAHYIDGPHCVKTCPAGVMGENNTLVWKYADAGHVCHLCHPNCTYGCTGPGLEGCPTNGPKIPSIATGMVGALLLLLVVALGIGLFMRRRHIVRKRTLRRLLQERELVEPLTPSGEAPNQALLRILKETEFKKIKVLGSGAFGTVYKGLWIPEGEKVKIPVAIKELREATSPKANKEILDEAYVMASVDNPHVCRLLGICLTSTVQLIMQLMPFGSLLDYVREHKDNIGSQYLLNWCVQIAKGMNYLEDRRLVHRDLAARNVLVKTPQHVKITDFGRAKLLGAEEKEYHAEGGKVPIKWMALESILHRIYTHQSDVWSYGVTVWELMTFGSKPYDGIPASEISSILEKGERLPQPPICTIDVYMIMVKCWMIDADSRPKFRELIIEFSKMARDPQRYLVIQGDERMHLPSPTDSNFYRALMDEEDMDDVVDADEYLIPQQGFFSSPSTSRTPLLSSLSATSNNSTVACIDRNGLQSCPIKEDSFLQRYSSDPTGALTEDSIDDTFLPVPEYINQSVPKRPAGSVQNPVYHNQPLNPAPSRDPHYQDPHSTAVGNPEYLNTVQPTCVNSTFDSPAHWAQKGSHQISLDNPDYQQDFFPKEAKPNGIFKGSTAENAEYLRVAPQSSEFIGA

[5] = biological target: Epidermal growth factor receptor (Homo sapiens, UniProt P00533); assay: Binding affinity to wild type EGFR (unknown origin) assessed as inhibition constant incubated for 30 mins in presence of ATP by Real-time fluorescence based analysis
Chain of Epidermal growth factor receptor (Homo sapiens, UniProt P00533) (P00533 whole entry): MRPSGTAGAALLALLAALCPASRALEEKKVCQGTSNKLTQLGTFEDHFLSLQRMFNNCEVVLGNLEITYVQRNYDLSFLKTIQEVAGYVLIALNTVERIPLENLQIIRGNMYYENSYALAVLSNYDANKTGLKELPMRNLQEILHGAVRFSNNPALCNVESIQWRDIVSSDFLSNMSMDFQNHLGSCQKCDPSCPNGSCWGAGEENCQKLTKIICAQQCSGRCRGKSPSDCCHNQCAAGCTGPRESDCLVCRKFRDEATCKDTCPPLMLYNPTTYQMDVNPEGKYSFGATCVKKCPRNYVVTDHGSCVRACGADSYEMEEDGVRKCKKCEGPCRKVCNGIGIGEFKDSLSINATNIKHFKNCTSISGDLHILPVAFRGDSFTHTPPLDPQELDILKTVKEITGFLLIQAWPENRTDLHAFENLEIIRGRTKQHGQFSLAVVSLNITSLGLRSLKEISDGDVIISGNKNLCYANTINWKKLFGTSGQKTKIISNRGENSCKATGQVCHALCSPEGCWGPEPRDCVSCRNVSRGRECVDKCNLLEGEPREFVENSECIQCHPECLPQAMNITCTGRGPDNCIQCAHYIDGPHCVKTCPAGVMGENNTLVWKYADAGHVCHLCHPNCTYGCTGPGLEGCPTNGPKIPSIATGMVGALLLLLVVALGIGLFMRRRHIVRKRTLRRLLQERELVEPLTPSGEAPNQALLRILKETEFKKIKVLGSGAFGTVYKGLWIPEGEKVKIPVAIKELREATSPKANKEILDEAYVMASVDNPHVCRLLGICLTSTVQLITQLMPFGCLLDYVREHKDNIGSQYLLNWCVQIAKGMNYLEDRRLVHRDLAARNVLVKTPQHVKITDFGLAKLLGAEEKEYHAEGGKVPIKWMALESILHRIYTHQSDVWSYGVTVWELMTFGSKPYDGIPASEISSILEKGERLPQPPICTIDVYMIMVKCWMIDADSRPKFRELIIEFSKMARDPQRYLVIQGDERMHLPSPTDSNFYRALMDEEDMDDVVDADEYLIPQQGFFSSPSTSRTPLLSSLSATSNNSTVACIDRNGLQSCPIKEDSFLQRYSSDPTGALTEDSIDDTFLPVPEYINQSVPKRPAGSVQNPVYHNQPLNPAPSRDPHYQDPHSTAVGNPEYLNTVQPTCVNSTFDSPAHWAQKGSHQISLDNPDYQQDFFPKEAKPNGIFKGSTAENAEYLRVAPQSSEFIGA

[6] = biological target: T1, CYP3A4/5; assay: Time dependent inhibition of CYP3A4/5 (unknown origin) in presence of NADPH; assay type: ADME, protein assay
[7] = biological target: T1, CYP3A4/5; assay: Reversible inhibition of CYP3A4/5 (unknown origin) at 30 uM relative to control; assay type: ADME, protein assay
[8] = biological target: T1, CYP3A4/5; assay: Time dependent inhibition of CYP3A4/5 (unknown origin) in absence of NADPH; assay type: ADME, protein assay
[9] = biological target: T1, CYP3A4/5; assay: Time dependent inhibition of CYP3A4/5 (unknown origin) at 30 uM measured after 10 mins relative to control; assay type: ADME, protein assay; conditions: read-out: TDI

activity at 30 µM [1] | inhibition at 0.5 h, 30 µM [2] | logD at 3 h [3] | pKi [4] | SMILES | also measured
78% | 50% |  |  | CO[C@@H]1CCN(c2nccc(Nc3cc4n(C5CCC6(CC5)OCCO6)c(C#N)cn4n3)n2)C[C@@H]1F | 
 |  | 3.32 | 8.00 | Cc1cn2nc(Nc3ccnc(N4CC[C@@H](O)[C@@H](F)C4)n3)cc2n1C1C2CCCC1C2 (stereo partly drawn) | pKi ([5]; read-out: Ki): 5.77
39% | 34.9% |  |  | CCc1cn2nc(Nc3ccnc(N4CC[C@@H](OC)[C@@H](F)C4)n3)cc2n1C1CCC2(CC1)OCCO2 | 
98% | 64% |  |  | CCNC(=O)c1cn2nc(Nc3ccnc(N4CC[C@@H](OC)[C@@H](F)C4)n3)cc2n1C1CCC2(CC1)OCCO2 | 
65% | 55.8% |  |  | CCc1cn2nc(Nc3ccnc(N4CC[C@@H](OC)[C@@H](F)C4)n3)cc2n1[C@H]1CC[C@]2(CCN(C)C2=O)CC1 | 
57% | 52.4% |  |  | CO[C@@H]1CCN(c2nccc(Nc3cc4n(C5CCC6(CC5)OCCO6)c(C)cn4n3)n2)C[C@@H]1F | pIC50 [6]: 3.81; inhibition at 30 µM [7]: 66%; pIC50 [8]: 6.09; inhibition at 10 min, 30 µM [9]: 41.2%
86% | 34% |  |  | CN1CCC2(CCC(n3c(C(F)(F)F)cn4nc(Nc5ccnc(N6CC[C@@H](O)[C@@H](F)C6)n5)cc34)CC2)C1=O (stereo partly drawn) | pIC50 [6]: < 5.85; pIC50 [8]: 4.66
> 99% | 24% |  |  | CO[C@@H]1CCN(c2nccc(Nc3cc4n(C5CCC6(CC5)OCCO6)c(C(=O)NCC5CCN(C)CC5)cn4n3)n2)C[C@@H]1F | 
> 99% | 26% |  |  | CO[C@@H]1CCN(c2nccc(Nc3cc4n(C5CCC6(CC5)OCCO6)c(C(=O)NCC5CN(C)C5)cn4n3)n2)C[C@@H]1F | 
25% | 8.3% |  |  | O[C@@H]1CCN(c2nccc(Nc3cc4n(C5CCC6(CC5)OCCO6)c(C(F)(F)F)cn4n3)n2)C[C@@H]1F | pIC50 [6]: 5.64; pIC50 [8]: 5.24
 |  | 3.37 | 6.02 | COC1CCN(c2nccc(Nc3cc4n(C5CC5)c(C)cn4n3)n2)CC1 | Ki [5]: Not_active
 |  | 2.27 | 7.57 | COC1CCN(c2nccc(Nc3cc4n(C5CCC(=O)CC5)c(C)cn4n3)n2)CC1 | Ki [5]: Not_active
 |  | 2.56 | 5.21 | COC1CCN(c2nccc(Nc3cc4n(C)c(C)cn4n3)n2)CC1 | Ki [5]: Not_active
